# Results as given in patent publication US5026836A, “6-sulfenamide, 6-sulfinamide and 6-sulfonamide purines, purine nucleosides, purine nucleotides, pharmaceutical compositions, and processes of making” (priority 1988, dated 1991).
# Where “and” joins values, the source holds several entries; their conditions need not be identical. Identical values can stand only once. Entries after “also recorded” stand apart in the source; their conditions may differ.
# Legend:
# L1210/Compound 18 cells = assay: Compound 18 resistant L1210 cells surviving treatment; format: in vivo, mouse
# Procedure: In Examples G through K Compound 19 was tested against L1210 cell lines which had developed resistance to other known cancer chemotherapeutic agents.
# In Example K, the results of which are shown in Table 11 below, Compound 19 was tested against drug resistant cell lines developed against Compound 18. […]
# [1] = test system: Human Colon Adenocarcinoma CX-1; assay: Human Colon Adenocarcinoma CX-1 tumor weight in nu/nu mice; format: in vivo; details: for Tumor wt, staging day (mean ± 1SD): before treatment (day 33 post implant); for δT/δC: ≤20% active
# Procedure: In this example Compound 19 was tested against reticulum cell sarcoma M5076. For this and certain other tests below, test results are shown as δT/δC. Utilizing this protocol the difference in tumor weight before treatment and after treatment of the treated animals compared to the control animals is determined.
# Compound 19 was further tested against Human Colon Adenocarcinoma CX-1. Activity against this tumor system is indicated at a δT/δC value of less than 20.
# B-16 melanoma = assay: Activity against B-16 melanoma; details: in vivo
# [2] = test system: L1210/6MP, 6TG, 6TGR cells; assay: Life span of mice inoculated with L1210 resistant to 6MP, 6TG, 6TGR; format: in vivo, mouse; details: for ILS: L1210/6MP,6TG; for activity against drug resistant cells (words): mouse, in vivo
# [3] = Toxicity / maximum tolerated dosage in mice; format: in vivo; details: ip 104 mg/kg/inj, bid days 1,4,7; 11 CDF1 mice with Colon 26
# L1210/MTX cells = assay: Methotrexate resistant L1210 cells surviving treatment; format: in vivo, mouse
# Procedure: In Example I Compound 19 was tested against Methotrexate resistant L1210 cells.
# L1210 cells [4] = assay: Bioassay of viable L1210 cells in brain after intracranial inoculation and ip drug; format: in vivo, mouse; details: for crossing of blood brain barrier / CNS penetration (words): mouse, in vivo
# Source text: BDF1 mice were inoculated intracranially on day 0 with 1×10^5 L1210 cells. […] 24 hr after drug delivery the brains were collected, homogenized, and injected ip into untreated mice. Each mouse received the equivalent of half a brain. Thereafter, life span was monitored and, using inoculum-response data as a base of comparison, estimates were made of the numbers of viable cells in treated and control brains.
# L1210 cells [5] = assay: L1210 cells surviving treatment (% of original inoculum); format: in vivo, mouse
# Source text: Values below 25% are considered capable of producing effective therapy, those below 10% are considered good and those below 5% are considered very good. This expresses the percent of the cells which survived treatment based upon the original cells in the inoculum. Those tests expressed as increases in life span (% ILS) indicate the increased life span of the drug treated group compared to a control group.
# As an indicator of reproducible activity, compounds of the invention and other known cancer chemotherapeutic agents were screened against L1210 lymphoid leukemia in vivo utilizing the mouse as a test species. Normal NCI protocols for this test require 10^5 seed cells of the L1210 cell line. However for the purposes of tests with the L1210 cell line in testing the compounds of the invention for antitumor activity, a log greater, i.e. 10^6 cells were utilized.
# Tables 2-a and 2-b illustrate a dose response for Compound 19 against L1210 inoculated mice expressed as both increased life span compared to control and as the number of cells of the original inoculum surviving drug treatment. As is evident from the various regimens of drug treatment shown in Tables 2-a and 2-b, effective therapeutic effects are noted and a dose response to Compound 19 is evident. […] Cytosine Arabinoside must be given every three hours. Test results are given utilizing standard protocols based on mean survival time and are expressed as T/C percentages (treated animals/control animals).
# [6] = day 12, ip 138.4 mg/kg/inj, qd days 1,3,5,7,9
# [7] = day 12, ip 138.4 mg/kg/inj, qd days 1,4,7,10,13,16
# [8] = day 12, ip 173.0 mg/kg/inj, qd days 1,3,5,7
# [9] = day 15, ip 138.4 mg/kg/inj, qd days 1,3,5,7,9,11
# [10] = day 15, ip 138.4 mg/kg/inj, qd days 1,4,7,10,13
# [11] = day 16, ip 173.0 mg/kg/inj, qd days 1,3,5,7,9
# [12] = day 16, ip 173.0 mg/kg/inj, qd days 1,4,7,10
# [13] = day 17, ip 173.0 mg/kg/inj, qd days 1,4,7,10,13
# [14] = ip 37 mg/kg/inj, bid days 1,3,5,7
# [15] = ip 62 mg/kg/inj, bid days 1,4,7
# [16] = oral 37 mg/kg/inj, bid days 1,3,5,7
# [17] = oral 62 mg/kg/inj, bid days 1,4,7
# [18] = listed as 2-amino-9-β-D-ribofuranosyl-9H-purine-6-sulfinamide
smiles,measurement,setting,value
"Nc1nc([S+](N)[O-])c2ncn([C@@H]3O[C@H](CO)[C@@H](O)[C@H]3O)c2n1 (mixture of isomers) [Compound 19, 2-amino-9-β-D-ribofuranosyl-9H-purine-6-sulfinamide]",L1210/Compound 18 cells surviving (% of day zero inoculum),"L1210/Compound 18 cells; ip 62 mg/kg/day, bid day 1",27.4%
same,L1210/Compound 18 cells surviving (% of day zero inoculum),"L1210/Compound 18 cells; ip 62 mg/kg/day, qd day 1",100.0%
same,L1210/Compound 18 cells surviving (% of day zero inoculum),"L1210/Compound 18 cells; ip 104 mg/kg/day, qd day 1",17.9%
same,L1210/Compound 18 cells surviving (% of day zero inoculum),"L1210/Compound 18 cells; ip 173 mg/kg/day, qd day 1",7.5%
same,activity against Compound 18 resistant L1210,"L1210/Compound 18 cells; mouse, in vivo",effective against those L1210 cell lines which have developed resistance against Compound 18; also recorded: active against cells which developed resistance to Compound 18
same,"Tumor wt, staging day (mean ± 1SD)","[1]; ip 138.4 mg/kg/inj group, qd days 1,3,5,7,9",226 mg
same,"Tumor wt, staging day (mean ± 1SD)","[1]; ip 138.4 mg/kg/inj group, qd days 1,3,5,7,9,11",220 mg
same,"Tumor wt, staging day (mean ± 1SD)","[1]; ip 138.4 mg/kg/inj group, qd days 1,4,7,10,13",225 mg
same,"Tumor wt, staging day (mean ± 1SD)","[1]; ip 138.4 mg/kg/inj group, qd days 1,4,7,10,13,16",215 mg
same,"Tumor wt, staging day (mean ± 1SD)","[1]; ip 173.0 mg/kg/inj group, qd days 1,3,5,7",222 mg
same,"Tumor wt, staging day (mean ± 1SD)","[1]; ip 173.0 mg/kg/inj group, qd days 1,3,5,7,9",229 mg
same,"Tumor wt, staging day (mean ± 1SD)","[1]; ip 173.0 mg/kg/inj group, qd days 1,4,7,10",226 mg
same,"Tumor wt, staging day (mean ± 1SD)","[1]; ip 173.0 mg/kg/inj group, qd days 1,4,7,10,13",226 mg
same,"Tumor wt, evaluation day (mean ± 1SD)",[1]; [6],278 ± 114 mg
same,δT/δC,[1]; [6],25.0%
same,"Tumor wt, evaluation day (mean ± 1SD)",[1]; [7],296 ± 186 mg
same,δT/δC,[1]; [7],38.9%
same,"Tumor wt, evaluation day (mean ± 1SD)",[1]; [8],302 ± 144 mg
same,δT/δC,[1]; [8],38.5%
same,"Tumor wt, evaluation day (mean ± 1SD)",[1]; [9],358 ± 125 mg
same,δT/δC,[1]; [9],46.6%
same,"Tumor wt, evaluation day (mean ± 1SD)",[1]; [10],375 ± 155 mg
same,δT/δC,[1]; [10],50.7%
same,"Tumor wt, evaluation day (mean ± 1SD)",[1]; [11],364 ± 254 mg
same,δT/δC,[1]; [11],39.9%
same,"Tumor wt, evaluation day (mean ± 1SD)",[1]; [12],402 ± 187 mg
same,δT/δC,[1]; [12],52.1%
same,"Tumor wt, evaluation day (mean ± 1SD)",[1]; [13],279 ± 121 mg
same,δT/δC,[1]; [13],15.8%
same,activity against B-16 melanoma,B-16 melanoma,No activity
same,"Activity against I.P. L1210 cells resistant to 6MP, 6TG, 6TGR, T/C","[2]; 37 mg/kg, bid days 1,3,5,7",165.6%
same,"Activity against I.P. L1210 cells resistant to 6MP, 6TG, 6TGR, T/C","[2]; 62 mg/kg, bid day 1",133.3%
same,"Activity against I.P. L1210 cells resistant to 6MP, 6TG, 6TGR, T/C","[2]; 62 mg/kg, bid days 1,4,7",175.0%
same,"Activity against I.P. L1210 cells resistant to 6MP, 6TG, 6TGR, T/C","[2]; 62 mg/kg, qd day 1",127.3%
same,"Activity against I.P. L1210 cells resistant to 6MP, 6TG, 6TGR, T/C","[2]; 62 mg/kg, tid day 1",133.3%
same,"Activity against I.P. L1210 cells resistant to 6MP, 6TG, 6TGR, T/C","[2]; 104 mg/kg, bid day 1",150.0%
same,"Activity against I.P. L1210 cells resistant to 6MP, 6TG, 6TGR, T/C","[2]; 104 mg/kg, qd day 1",122.2%
same,"Activity against I.P. L1210 cells resistant to 6MP, 6TG, 6TGR, T/C","[2]; 173 mg/kg, qd day 1",144.5%
same,ILS,[2]; [14],66%
same,ILS,[2]; [15],75%
same,ILS,[2]; [16],0%
same,ILS,[2]; [17],0%
same,activity against drug resistant cells (words),[2],exhibited activity against the drug resistant cells; also recorded: active
same,activity against drug resistant cells (words),[2]; [18],demonstrated activity against cells which have become resistant to other chemotherapeutic agents
same,toxic deaths,[3],6
same,activity against Methotrexate resistant cells,L1210/MTX cells; depending on dose level and regimen,activity can be seen against these Methotrexate resistant cells
same,L1210/MTX cells surviving (% of day zero inoculum),"L1210/MTX cells; ip 104 mg/kg/day, qd days 1,4,7",238.4%
same,L1210/MTX cells surviving (% of day zero inoculum),"L1210/MTX cells; ip 173 mg/kg/day, qd day 1",1.6%
same,L1210/MTX cells surviving (% of day zero inoculum),"L1210/MTX cells; ip 173 mg/kg/day, qd days 1,4,7",33.8%
same,Residual cells (% of control brain),"L1210 cells [4]; 24 hr after single ip dose (mg/kg): Methotrexate 12, Adriamycin 3, 6-Mercaptopurine 160, Cytosine Arabinoside 1200, Cyclophosphamide 140, Compound 19 173, Tiazofurin 1200, BCNU 20",7.9%
same,intracranial activity,L1210 cells [4]; intracranial L1210,significant reduction in the number of neoplastic cells in the brain; also recorded: active intracranially
same,"cell/half brain day 2, cell number",L1210 cells [4]; ip 173 mg/kg day 1,261016 cell/half brain
same,"cell/half brain day 2, log10",L1210 cells [4]; ip 173 mg/kg day 1,5.42 log10
same,"change due to drug, cells","L1210 cells [4]; ip 173 mg/kg day 1, vs control",-92.08%
same,"change due to drug, log10","L1210 cells [4]; ip 173 mg/kg day 1, vs control",-1.10 log10
same,crossing of blood brain barrier / CNS penetration (words),L1210 cells [4],effectively cross the blood brain barrier
same,crossing of blood brain barrier / CNS penetration (words),L1210 cells [4]; [18],able to penetrate the central nervous system; also recorded: penetrating the central nervous system
same,L1210 cells surviving day 7 treatment (% of original inoculum),"L1210 cells [5]; 22 mg/kg, bid days 1,3,5,7",594%
same,L1210 cells surviving day 7 treatment (% of original inoculum),"L1210 cells [5]; 22 mg/kg, bid days 1,4,7",9211%
same,L1210 cells surviving day 7 treatment (% of original inoculum),"L1210 cells [5]; 22 mg/kg, bid days 1-7",343%
same,L1210 cells surviving day 7 treatment (% of original inoculum),"L1210 cells [5]; 37 mg/kg, bid days 1,3,5,7",17%
same,L1210 cells surviving day 7 treatment (% of original inoculum),"L1210 cells [5]; 37 mg/kg, bid days 1,4,7",87%
same,L1210 cells surviving day 7 treatment (% of original inoculum),"L1210 cells [5]; 37 mg/kg, bid days 1-7",22%
same,L1210 cells surviving day 7 treatment (% of original inoculum),"L1210 cells [5]; 37 mg/kg, qd days 1,3,5,7",3077%
same,L1210 cells surviving day 7 treatment (% of original inoculum),"L1210 cells [5]; 37 mg/kg, qd days 1,4,7",15936%
same,L1210 cells surviving day 7 treatment (% of original inoculum),"L1210 cells [5]; 37 mg/kg, qd days 1-7",115%
same,L1210 cells surviving day 7 treatment (% of original inoculum),"L1210 cells [5]; 62 mg/kg, bid days 1,3,5,7",0.3%
same,L1210 cells surviving day 7 treatment (% of original inoculum),"L1210 cells [5]; 62 mg/kg, bid days 1,4,7",5.6%
same,L1210 cells surviving day 7 treatment (% of original inoculum),"L1210 cells [5]; 62 mg/kg, qd days 1,3,5,7",50%
same,L1210 cells surviving day 7 treatment (% of original inoculum),"L1210 cells [5]; 62 mg/kg, qd days 1,4,7",594%
same,L1210 cells surviving treatment (% of original inoculum),"L1210 cells [5]; 62 mg/kg, qd days 1-7",13%
same,L1210 cells surviving treatment (% of original inoculum),"L1210 cells [5]; 104 mg/kg, qd days 1,3,5,7",17%
same,L1210 cells surviving treatment (% of original inoculum),"L1210 cells [5]; 104 mg/kg, qd days 1,4,7",29%
same,L1210 cells surviving treatment (% of original inoculum),"L1210 cells [5]; 173 mg/kg, qd days 1,3,5,7",0.2%
same,L1210 cells surviving treatment (% of original inoculum),"L1210 cells [5]; 173 mg/kg, qd days 1,4,7",1.1%
same,RCP (Residual Cell Population),L1210 cells [5]; [14],.32
same,L1210 cells surviving (% of day zero inoculum),"L1210 cells [5]; ip 62 mg/kg, bid day 1",0.8%
same,L1210 cells surviving (% of day zero inoculum),"L1210 cells [5]; ip 62 mg/kg, qd day 1, 62 mg/kg",0.8% and 8.5%
same,L1210 cells surviving (% of day zero inoculum),"L1210 cells [5]; ip 62 mg/kg, tid day 1",0.4%
same,RCP (Residual Cell Population),L1210 cells [5]; [15],.14
same,L1210 cells surviving (% of day zero inoculum),"L1210 cells [5]; ip 104 mg/kg, qd day 1",5.4%
same,L1210 cells surviving treatment (% of day zero inoculum),"L1210 cells [5]; ip 104 mg/kg/day, qd days 1-7, 1 long term survivor not included",0.04%
same,L1210 cells surviving (% of day zero inoculum),"L1210 cells [5]; ip 173 mg/kg, qd day 1",1.4%
same,RCP (Residual Cell Population),L1210 cells [5]; [16],3.73
same,RCP (Residual Cell Population),L1210 cells [5]; [17],8.48
